Where two headings read alike, the source gives them in different places.

In series [1] the test system is normal patient-derived duodenal organoids. Put plainly: Chemotherapy drug toxicity screen with human duodenum organoids, label-free timelapse imaging analysed by SPOT. The note with it: for phenotype cluster frequency over time (stacked barplots): 5 days. The method, then: Organoids were plated onto 96 well plates as follows. Using ice-cold PBS, the organoids were retrieved from the Matrigel and briefly microcentrifuged. To aid organoid dissociation, the pellet was vigorously resuspended in Trypsin and incubated at 37° C. for 10 min to ensure a high degree of dissociation. The organoid fragments were then briefly microcentrifuged and resuspended in 200 μL of Matrigel. The resuspended organoids were then kept on ice to prevent gelation of the Matrigel. Then, 2 μL of the organoid suspension was seeded inside each well. During this process, the organoid-Matrigel mix was resuspended every 12 wells to ensure an even mix. The Matrigel was allowed to gelate at room temperature for 5 min. Once the Matrigel solidified, 100 μL of human organoid medium, pre-warmed at 37° C. to prevent the detachment of the Matrigel, was then overlaid and replaced every 2 days. Once the organoids had grown for 6 days inside the 96-well plate, the medium was removed by inversion and washed with pre-warmed PBS at 37° C. After removing the PBS by inversion, the wells were filled with 100 μL of human organoid medium (HOM) with a titration of chemotherapy drugs. […] These concentrations were based on the previously published screening concentrations (van de Wetering, M. et al. Cell 161, 933-945 (2015)). All drugs were solubilized and diluted with DMSO. The different conditions were filmed on a Nikon microscope for 120 h at a frequency of 1 image per hour with a 2× objective.
Human duodenum organoids were harvested and dissociated into single cells following the passaging procedure described above. Cell pellets were resuspended in 500 μL of PBS. Cells were filtered through the cell strainer (70 μm) and counted with the automated cell counter (BIO-RAD). The appropriate cell dilutions were made in GFR Matrigel. Then, the cells were seeded in a pre-warmed 96-well black tissue culture-treated (TC-treated) sterile microplate (PerkinElmer), and plates were incubated for 10 min in a cell culture incubator at 37° C. and 5% CO2 to solidify the Matrigel. Human duodenum organoid culture media (HOM, Table 9) was added to each well (200 μL) and refreshed every other day. For WNT experiments, before performing timelapse video collection, the HOM media was changed to ENR (EGF, Noggin, R-spondin only) for the ENR imaging conditions. Specifically, group HOM organoids were cultured in HOM culture medium for 14 days. Group ENR+WNT3A (day 3) organoids were under ENR treatment for 3 days and then ENR+Wnt3A for 11 days. Group ENR+WNT3A (day 6) organoids were under ENR treatment for 6 days and then ENR+Wnt3a for the next 8 days. Group ENR+Wnt3A (day 9) organoids were under ENR treatment for 9 days and then under ENR+Wnt3A treatment for 5 days. Group ENR organoids were under ENR treatment for 14 days. All images were acquired using a Nikon TE 2000-E Eclipse inverted microscope, with a 10×/0.3 NA Plan Fluor Ph1 objective. The system was maintained at 37° C. in the presence of 5% CO2. Z-stack images 1000 μm in depth were acquired at 100 μm intervals (11 steps per acquisition) approximately every 60 min for 5 days (chemotherapy drug screen) and 14 days (WNT addition experiments).
Multicellular structures, such as organoids, have emerged as attractive experimental models. Further, the complex spatiotemporal dynamics of organoids are underlined by the cells' genetic makeup, cell/cell interactions, and the constituent cells' responses to environmental perturbations. SPOT's potential was therefore tested to measure the spatiotemporal dynamics of organoids using normal patient-derived duodenal organoids grown in a 96-well plate and imaged label-free. The entire SPOT workflow was applied to measure organoid response to eight chemotherapy drugs at three different concentrations. 60-100 organoids were seeded per well, and all organoids were filmed every hour for 5 days (stage 1).

For series [2], the system named is human duodenum organoids. Put plainly: Delayed WNT3A restoration to ENR-cultured human duodenum organoids, timelapse imaging analysed by SPOT. In kind it is cell-based. The procedure:
Cell pellets were resuspended in 500 μL of PBS. […] The appropriate cell dilutions were made in GFR Matrigel.
The observed flattening phenotype is visually reminiscent of Apc^min/+ murine colon organoids. However, the role of WNT on the morphodynamic changes of human organoids was unexpected. Whereas Apc^min/+ organoids should have high WNT signaling, ENR medium lacks WNT. To test the direct impact of WNT on the morphological changes of human duodenum organoids, WNT3A, a potent inducer of WNT signaling, was added to the ENR medium at day 3, 6, and 9 after the initial transfer of human duodenum organoids to ENR. […] To quantify the impact of WNT3A restoration, all organoids were grown in 96-well plates for 7 days, and live-cell images were captured every hour for the next 14 days (FIG. 5c). The spatiotemporal dynamics of a library of >500,000 segmented organoid instances over all timepoints and videos were analyzed by SPOT in the same manner as mouse colon organoids, and the organoids were subsequently classified into one of 7 phenotype clusters. Quantifying the expression of representative SAM features, as expected, organoids cultured in HOM were large and spherical, shown by enriched distribution of yellow cluster 6.

In series [3] the test system is human duodenum organoids. Nature of the series: scRNA-seq of human duodenum organoids (HOM, ENR, ENR+WNT3A). It is filed as cell-based. The note with it: restoring WNT3A. An excerpt: Organoids were individually seeded onto a 24-well plate and cultured for 7 days before treatment as described above.
For scRNA-seq, Group HOM was collected after the initial 7 days' culture before further treatment, that is day 0 of the timelapse acquisition. […] Group ENR organoids were under ENR treatment for a total of 3, 6, and 9 days, respectively, then collected. After being harvested, the organoids were processed in the same manner as for murine organoids.
To understand the molecular basis of WNT depletion-induced morphodynamic changes, scRNA-seq was also performed on the human duodenum organoids cultured under conditions and timescales identical to those used for the SPOT analysis. In total, 8763 single cell transcriptomes were generated. […] Examining the expression of WNT, YAP targets, fetal and RSC signatures in organoid-derived cells as a function of the time of WNT3A rescue, it is evident that there is an inverse association between high WNT and high YAP target-expressing cells. Also, the kinetics of RSC signature expression levels coincide with the extent of phenotypic changes detected by SPOT. Thus, WNT-deprived ENR medium induces RSCs that lead to the development of morphologically irregular and flattened organoids.

Turning to `O=c1[nH]cc(F)c(=O)[nH]1` [5-fluorouracil], in series [1], the relative toxicity result is “lower relative toxicity”, the temporal phenotype trajectory result was “milder toxicity” and the “phenotype cluster frequency over time (stacked barplots)” value was “approximately maintain the fraction of the cluster 2 large spherical organoid phenotype”.
Regarding `CC(=O)O[C@@]12CO[C@@H]1C[C@H](O)[C@@]1(C)C(=O)[C@H](O)C3=C(C)[C@@H](OC(=O)[C@H](O)[C@@H](NC(=O)OC(C)(C)C)c4ccccc4)C[C@@](O)([C@@H](OC(=O)c4ccccc4)[C@H]21)C3(C)C` [docetaxel, Docetaxel], the “HMM cluster transition pattern” value in series [1] is “conserved cluster transition pattern”.
Regarding `COc1cccc2c1C(=O)c1c(O)c3c(c(O)c1C2=O)C[C@@](O)(C(=O)CO)C[C@@H]3O[C@H]1C[C@H](N)[C@@H](O)[C@H](C)O1` [epirubicin, Epirubicin], in series [1], the “HMM cluster transition pattern” value was “conserved cluster transition pattern” and the temporal phenotype trajectory entry is given as “opposing trajectory from top to bottom”.
With `COc1cc2ncnc(Nc3ccc(F)c(Cl)c3)c2cc1OCCCN1CCOCC1` [gefitinib, Gefitinib], in series [1], the relative toxicity result is “lower relative toxicity”, the temporal phenotype trajectory entry is listed as “milder toxicity” and the “phenotype cluster frequency over time (stacked barplots)” value is on record as “approximately maintain the fraction of the cluster 2 large spherical organoid phenotype”.
Consider `CCc1c2c(nc3ccc(OC(=O)N4CCC(N5CCCCC5)CC4)cc13)-c1cc3c(c(=O)n1C2)COC(=O)[C@]3(O)CC` [irinotecan, Irinotecan], for which, in series [1], the “HMM cluster transition pattern” value is given as “loses the autoregulatory loop of cluster 2” and the temporal phenotype trajectory result is listed as “opposing trajectory from top to bottom”.
In the case of `O=C1[O][Pt]2([NH][C@@H]3CCCC[C@H]3[NH]2)[O]C1=O` [oxaliplatin, Oxaliplatin], the “impact on organoid morphology (UMAP density heatmaps)” value in series [1] (all three concentrations, highest: cisplatin 6, oxaliplatin 20, mitomycin C 0.03, 5-fluorouracil 20, gefitinib 0.5, irinotecan 5, docetaxel 0.0125, epirubicin 4.5 μM, vs DMSO control) is reported as “limited impact on organoid morphology”. Besides, the temporal phenotype trajectory entry in series [1] (compared with DMSO trajectory) was “Predominant organoid growth”. Moreover, the relative toxicity result in series [1] (final timepoints, maximum concentration, 5 days filming) was “lower relative toxicity”.

B1: WNT3A: a potent inducer of WNT signaling, added to the ENR medium (protein, UniProt P56704 19-352, looked up)
Protein Wnt-3a: SYPIWWSLAVGPQYSSLGSQPILCASIPGLVPKQLRFCRNYVEIMPSVAEGIKIGIQECQHQFRGRRWNCTTVHDSLAIFGPVLDKATRESAFVHAIASAGVAFAVTRSCAEGTAAICGCSSRHQGSPGKGWKWGGCSEDIEFGGMVSREFADARENRPDARSAMNRHNNEAGRQAIASHMHLKCKCHGLSGSCEVKTCWWSQPDFRAIGDFLKDKYDSASEMVVEKHRESRGWVETLRPRYTYFKVPTERDLVYYEASPNFCEPNPETGSFGTRDRTCNVSSHGIDGCDLLCCGRGHNARAERRREKCRCVFHWCCYVSCQECTRVYDVHTCK
B1: in series [2] (WNT3A restored on day 3), the “impact on phenotype rescue (proportion of irregularly shaped to spherical organoids)” value (“impact on phenotype rescue” below) is recorded as “biggest impact”; the “organoid growth (cluster 6)” value is given as “increased”; the “percentage of irregularly shaped organoids (cluster 7)” value was “substantially reduced”; the temporal phenotype trajectory result was “close overlap between day 3 WNT3A restoration and HOM conditions”. In series [2] (WNT3A restored on day 6), the “HMM cluster transition graph” value is “best reflects the ENR-only condition” and the “impact on phenotype rescue” value is “little impact”. In series [2] (WNT3A restored on day 9), the “HMM cluster transition graph” value is “introduces two new transitions, cluster 5-to-3 and cluster 4-to-2”; the “impact on phenotype rescue” value was “minimal impact”. Besides, the “formation of morphologically flattened irregular organoids” value in series [2] (WNT3A restored to ENR medium at day 3) was “largely prevented”. The “induction of RSCs leading to morphologically irregular and flattened organoids in WNT-deprived ENR medium” value in series [3] is “can be prevented”.

These data come from US20250308265A1, “METHODS AND SYSTEMS FOR CHARACTERIZING MORPHODYNAMIC PROFILES OF OBJECTS” (The Chancellor, Masters and Scholars of the University of …, priority 2022, published 2025).
